# In patent publication US10570116B2, “1,4-dicarbonyl-piperidyl derivatives” (Merck Patent GmbH, priority 2015, dated 2020):
# Key:
# TNKS1 = TNKS1 (Homo sapiens (Human), UniProt O95271); assay: biochemical; format: biochemical; details: GST-tagged Tnks-1 (1023-1327 aa); read-out: IC50 [M] TNKS1 ELISA
# TNKS2 = TNKS2 (Homo sapiens (Human), UniProt Q9H2K2); assay: biochemical; format: biochemical; details: GST-tagged Tnks-2 (873-1166 aa); read-out: IC50 [M] TNKS2 ELISA
# Tankyrases = assay: Measurement of cellular inhibition of Tankyrase (Axin2 level, Luminex based assay, DLD1 cells); format: cell-based; details: increase of Axin2 level, 24 hours, read-out: EC50 [M] TNKS cellular assay
# PARP-1 = PARP-1 (Homo sapiens (Human), UniProt P09874); assay: Biochemical activity testing of PARP-1: autoparsylation assay (HTRF); details: His-tagged Parp-1, autoparsylation HTRF
# PARP-1, sequence (P09874 whole entry): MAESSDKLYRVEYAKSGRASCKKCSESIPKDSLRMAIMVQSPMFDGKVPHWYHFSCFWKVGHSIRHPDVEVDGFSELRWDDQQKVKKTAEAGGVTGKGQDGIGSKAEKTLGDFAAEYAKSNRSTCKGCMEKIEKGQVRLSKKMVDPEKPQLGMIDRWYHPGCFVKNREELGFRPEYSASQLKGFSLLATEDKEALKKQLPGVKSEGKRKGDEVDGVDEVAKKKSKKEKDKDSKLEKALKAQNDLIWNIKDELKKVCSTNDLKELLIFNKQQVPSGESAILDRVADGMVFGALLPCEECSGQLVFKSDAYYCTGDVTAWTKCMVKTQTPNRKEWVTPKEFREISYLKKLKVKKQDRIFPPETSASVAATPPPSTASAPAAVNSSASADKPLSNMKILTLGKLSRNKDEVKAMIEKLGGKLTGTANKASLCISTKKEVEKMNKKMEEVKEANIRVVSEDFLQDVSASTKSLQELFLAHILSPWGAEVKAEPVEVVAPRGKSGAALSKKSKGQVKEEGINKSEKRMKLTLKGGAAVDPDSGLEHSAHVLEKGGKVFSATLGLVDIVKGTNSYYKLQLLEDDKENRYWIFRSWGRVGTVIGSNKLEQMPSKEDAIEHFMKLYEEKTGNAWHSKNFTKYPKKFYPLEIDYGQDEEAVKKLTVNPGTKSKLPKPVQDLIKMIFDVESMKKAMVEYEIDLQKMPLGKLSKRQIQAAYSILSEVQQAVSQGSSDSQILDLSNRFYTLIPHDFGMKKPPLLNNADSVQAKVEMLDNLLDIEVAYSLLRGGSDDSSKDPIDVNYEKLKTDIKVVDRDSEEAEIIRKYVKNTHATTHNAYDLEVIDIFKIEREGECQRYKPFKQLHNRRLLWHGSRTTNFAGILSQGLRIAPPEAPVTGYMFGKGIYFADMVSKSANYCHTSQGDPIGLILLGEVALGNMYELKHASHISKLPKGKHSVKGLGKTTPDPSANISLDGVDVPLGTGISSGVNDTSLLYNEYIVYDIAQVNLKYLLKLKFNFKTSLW
Compound,IC50 (TNKS1) [M],IC50 (TNKS2) [M],EC50 (Tankyrases) [M],IC50 (PARP-1) [nM]
"COc1ccc(C(=O)C2CCN(C(=O)CC(C)(C)Cc3nc4c(ccn4C)c(=O)[nH]3)CC2)cn1 [Compound C16, 2-{4-[4-(6-Methoxy-pyridine-3-carbonyl)-piperidin-1-yl]-2,2-dimethyl-4-oxo-butyl}-7-methyl-3,7-dihydro-pyrrolo[2,3-d]pyrimidin-4-one]",6.1e-10,4.1e-10,4.1e-09,
"Cn1cc(C(=O)C2CCN(C(=O)CC(C)(C)Cc3nc4c(ccn4C)c(=O)[nH]3)CC2)cn1 [Compound C17, 2-{2,2-Dimethyl-4-[4-(1-methyl-1H-pyrazole-4-carbonyl)-piperidin-1-yl]-4-oxo-butyl}-7-methyl-3,7-dihydro-pyrrolo[2,3-d]pyrimidin-4-one]",4.7e-10,3.3e-10,6.9e-09,> 30000
"CCn1cc(C(=O)C2CCN(C(=O)CC(C)(C)Cc3nc4c(ccn4C)c(=O)[nH]3)CC2)cn1 [Compound C18, 2-{4-[4-(1-Ethyl-1H-pyrazole-4-carbonyl)-piperidin-1-yl]-2,2-dimethyl-4-oxo-butyl}-7-methyl-3,7-dihydro-pyrrolo[2,3-d]pyrimidin-4-one]",5.8e-10,3.6e-10,2.8e-09,> 30000
"CC(C)n1cc(C(=O)C2CCN(C(=O)CC(C)(C)Cc3nc4c(ccn4C)c(=O)[nH]3)CC2)cn1 [Compound C19, 2-{4-[4-(1-Isopropyl-1H-pyrazole-4-carbonyl)-piperidin-1-yl]-2,2-dimethyl-4-oxo-butyl}-7-methyl-3,7-dihydro-pyrrolo[2,3-d]pyrimidin-4-one]",1.3e-09,5.8e-10,9.3e-09,
"COc1ccc(C(=O)C2CCN(C(=O)COCc3nc4ccccc4c(=O)[nH]3)CC2)cc1 [Compound C23, 2-{2-[4-(4-Methoxy-benzoyl)-piperidin-1-yl]-2-oxo-ethoxymethyl}-3H-quinazolin-4-one]",6.3e-09,2.1e-09,2.6e-08,
"Cn1cc(C(=O)C2CCN(C(=O)COCc3nc4ccccc4c(=O)[nH]3)CC2)cn1 [Compound C24, 2-{2-[4-(1-Methyl-1H-pyrazole-4-carbonyl)-piperidin-1-yl]-2-oxo-ethoxymethyl}-3H-quinazolin-4-one]",2.7e-08,1.2e-08,1e-07,
"COc1ccc(C(=O)C2CCN(C(=O)COCc3nc4ccccc4c(=O)[nH]3)CC2)cn1 [Compound C25, 2-{2-[4-(6-Methoxy-pyridine-3-carbonyl)-piperidin-1-yl]-2-oxo-ethoxymethyl}-3H-quinazolin-4-one]",3.6e-08,1.2e-08,6.4e-08,
"COc1ccc(C(=O)C2CCN(C(=O)COCc3nc4c(F)cc(F)cc4c(=O)[nH]3)CC2)cc1 [Compound C26, 6,8-Difluoro-2-{2-[4-(4-methoxy-benzoyl)-piperidin-1-yl]-2-oxo-ethoxymethyl}-3H-quinazolin-4-one]",7.7e-09,3e-09,2.3e-08,
"COc1ccc(C(=O)C2CCN(C(=O)COCc3nc4c(F)cc(F)cc4c(=O)[nH]3)CC2)cn1 [Compound C28, 6,8-Difluoro-2-{2-[4-(6-methoxy-pyridine-3-carbonyl)-piperidin-1-yl]-2-oxo-ethoxymethyl}-3H-quinazolin-4-one]",3.4e-08,1.2e-08,1e-07,
"CN(CCc1nc2ccccc2c(=O)[nH]1)C(=O)N1CCC(C(=O)c2cnn(C)c2)CC1 [Compound C31, 4-(1-Methyl-1H-pyrazole-4-carbonyl)-piperidine-1-carboxylic Acid methyl-[2-(4-oxo-3,4-dihydro-quinazolin-2-yl)-ethyl]-amide]",3e-09,2.2e-09,2.3e-08,
"COC(=O)c1ccc(C(=O)C2CCN(C(=O)CC(C)(C)Cc3nc4ccccc4c(=O)[nH]3)CC2)cc1 [Compound C32, 4-{1-[3,3-Dimethyl-4-(4-oxo-3,4-dihydro-quinazolin-2-yl)-butyryl]-piperidine-4-carbonyl}-benzoic Acid Methyl Ester]",6.8e-10,5.6e-10,1.1e-07,
"CC(C)(CC(=O)N1CCC(C(=O)c2ccc(C(=O)O)cc2)CC1)Cc1nc2ccccc2c(=O)[nH]1 [Compound C33, 4-{1-[3,3-Dimethyl-4-(4-oxo-3,4-dihydro-quinazolin-2-yl)-butyryl]-piperidine-4-carbonyl}-benzoic Acid]",5.1e-10,4.5e-10,1.5e-07,
"COC(=O)c1cccc(C(=O)C2CCN(C(=O)CC(C)(C)Cc3nc4ccccc4c(=O)[nH]3)CC2)c1 [Compound C34, 3-{1-[3,3-Dimethyl-4-(4-oxo-3,4-dihydro-quinazolin-2-yl)-butyryl]-piperidine-4-carbonyl}-benzoic Acid Methyl Ester]",4.8e-10,5e-10,9.9e-09,
"COC(=O)c1cccc(C(=O)C2CCN(C(=O)CC(C)(C)Cc3nc4c(C)cccc4c(=O)[nH]3)CC2)c1 [Compound C36, 3-{1-[3,3-Dimethyl-4-(8-methyl-4-oxo-3,4-dihydro-quinazolin-2-yl)-butyryl]-piperidine-4-carbonyl}-benzoic acid methyl ester]",7.9e-10,2.1e-09,3.4e-09,
"COC(=O)c1ccc(C(=O)C2CCN(C(=O)CC(C)(C)Cc3nc4ccccc4c(=O)[nH]3)CC2)cc1C [Compound C38, 4-{1-[3,3-Dimethyl-4-(4-oxo-3,4-dihydro-quinazolin-2-yl)-butyryl]-piperidine-4-carbonyl}-2-methyl-benzoic Acid Methyl Ester]",5.8e-10,3.2e-10,9.9e-10,
"Cc1cc(C(=O)C2CCN(C(=O)CC(C)(C)Cc3nc4ccccc4c(=O)[nH]3)CC2)ccc1C(=O)O [Compound C39, 4-{1-[3,3-Dimethyl-4-(4-oxo-3,4-dihydro-quinazolin-2-yl)-butyryl]-piperidine-4-carbonyl}-2-methyl-benzoic Acid]",4.3e-10,6.1e-10,1.3e-07,
"COC(=O)c1ccc(C(=O)C2CCN(C(=O)CC(C)(C)Cc3nc4c(C)cccc4c(=O)[nH]3)CC2)cc1C [Compound C40, 4-{1-[3,3-Dimethyl-4-(8-methyl-4-oxo-3,4-dihydro-quinazolin-2-yl)-butyryl]-piperidine-4-carbonyl}-2-methyl-benzoic Acid Methyl Ester]",1.5e-09,4.7e-09,2.9e-09,
"Cc1cc(C(=O)C2CCN(C(=O)CC(C)(C)Cc3nc4c(C)cccc4c(=O)[nH]3)CC2)ccc1C(=O)O [Compound C41, 4-{1-[3,3-Dimethyl-4-(8-methyl-4-oxo-3,4-dihydro-quinazolin-2-yl)-butyryl]-piperidine-4-carbonyl}-2-methyl-benzoic Acid]",5.9e-10,8.8e-10,1.1e-08,
"Cc1cc(F)cc2c(=O)[nH]c(C[C@@H](C)CC(=O)N3CCC(C(=O)c4cccc(C(=O)O)c4)CC3)nc12 [Compound C46, 3-{1-[(R)-4-(6-Fluoro-8-methyl-4-oxo-3,4-dihydro-quinazolin-2-yl)-3-methyl-butyryl]-piperidine-4-carbonyl}-benzoic Acid]",8.2e-09,2.8e-09,1e-05,
"Cc1cc(F)cc2c(=O)[nH]c(C[C@H](C)CC(=O)N3CCC(C(=O)c4cccc(C(=O)O)c4)CC3)nc12 [Compound C47, 3-{1-[(S)-4-(6-Fluoro-8-methyl-4-oxo-3,4-dihydro-quinazolin-2-yl)-3-methyl-butyryl]-piperidine-4-carbonyl}-benzoic Acid]",3.5e-10,2.2e-10,3e-09,
"CN(C)Cc1ccc(C(=O)C2CCN(C(=O)CC(C)(C)Cc3nc4ccccc4c(=O)[nH]3)CC2)cc1 [Compound C48, 2-{4-[4-(4-Dimethylaminomethyl-benzoyl)-piperidin-1-yl]-2,2-dimethyl-4-oxo-butyl}-3H-quinazolin-4-one]",1.4e-08,5.3e-09,1.3e-07,
"Cn1cc(C(=O)C2CCN(C(=O)CC(C)(C)Cc3cc4ccccc4c(=O)[nH]3)CC2)cn1 [Compound C49, 3-{2,2-Dimethyl-4-[4-(1-methyl-1H-pyrazole-4-carbonyl)-piperidin-1-yl]-4-oxo-butyl}-2H-isoquinolin-1-one]",3e-10,2.1e-10,1.3e-09,
"C[C@H](CC(=O)N1CCC(C(=O)c2cnn(C)c2)CC1)Cc1cc2ccccc2c(=O)[nH]1 [Compound C50, 3-{(S)-2-Methyl-4-[4-(1-methyl-1H-pyrazole-4-carbonyl)-piperidin-1-yl]-4-oxo-butyl}-2H-isoquinolin-1-one]",4.4e-10,2.4e-10,6.8e-10,
"C[C@@H](CC(=O)N1CCC(C(=O)c2cnn(C)c2)CC1)Cc1cc2ccccc2c(=O)[nH]1 [Compound C51, 3-{(R)-2-Methyl-4-[4-(1-methyl-1H-pyrazole-4-carbonyl)-piperidin-1-yl]-4-oxo-butyl}-2H-isoquinolin-1-one]",1e-09,7.2e-10,1.2e-08,
"CC(C)(CC(=O)N1CCC(C(=O)c2ccc(C(=O)O)cc2)CC1)Cc1cc2ccccc2c(=O)[nH]1 [Compound C52, 4-{1-[3,3-Dimethyl-4-(1-oxo-1,2-dihydro-isoquinolin-3-yl)-butyryl]-piperidine-4-carbonyl}-benzoic Acid]",3.3e-10,2.5e-10,8e-08,
"CC(C)(CC(=O)N1CCC(C(=O)c2cccc(C(=O)O)c2)CC1)Cc1cc2ccccc2c(=O)[nH]1 [Compound C53, 3-{1-[3,3-Dimethyl-4-(1-oxo-1,2-dihydro-isoquinolin-3-yl)-butyryl]-piperidine-4-carbonyl}-benzoic Acid]",1.1e-09,6.9e-10,8.7e-07,
